US12247032B2, “Substituted pyrazolo[1,5-a]pyrimidines as inhibitors of JAK kinases” (Genentech, Inc., priority 2019, dated 2025)

How the values were obtained:
[1] = target: T1, recombinant human JAK1 kinase domain protein (Residues 854-1154) (Homo sapiens, UniProt P23458); assay: JAK1 biochemical assay (microfluidic mobility shift, peptide phosphorylation); details: 25 μM ATP, 1 nM total JAK1; Ki calculated from Ki app (tight-binding, competitive); read-out: Biochem JAK1 Ki
T1 construct: human JAK1 kinase domain protein (Residues 854-1154); purchased Proteros Biostructures GmbH (Martinsried, Germany); host or cells: insect cells
T1 sequence (P23458 854-1154): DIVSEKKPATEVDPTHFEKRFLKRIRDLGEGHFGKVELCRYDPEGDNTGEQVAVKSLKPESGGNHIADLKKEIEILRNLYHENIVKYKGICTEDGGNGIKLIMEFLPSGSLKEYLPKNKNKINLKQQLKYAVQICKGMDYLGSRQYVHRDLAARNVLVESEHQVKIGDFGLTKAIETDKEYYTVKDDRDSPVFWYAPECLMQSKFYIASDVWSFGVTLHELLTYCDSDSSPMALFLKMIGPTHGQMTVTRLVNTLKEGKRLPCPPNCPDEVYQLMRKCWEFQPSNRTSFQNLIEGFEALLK
Procedure, shortened: (§1)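 Insect-cell-expressed human JAK1 (1 nM, residues 854-1154) or JAK2 (0.2 nM, residues 812-1132) phosphorylating 1.5 μM 5-FAM peptide Y-1B with 25 μM ATP, pH 7.2 HEPES, 30 min at 22-23 °C; twelve concentrations up to 1000 nM in duplicate. Mobility-shift % conversion fitted to tight-binding quadratic for Ki^app.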

[2] = target: T2, Recombinant human JAK2 kinase domain protein (Residues 812-1132) (Homo sapiens, UniProt O60674); assay: JAK2 biochemical assay (microfluidic mobility shift, peptide phosphorylation); details: 25 μM ATP, 0.2 nM total JAK2; Ki calculated from Ki app (tight-binding, competitive); read-out: Biochem JAK2 Ki
T2 construct: human JAK2 kinase domain protein (Residues 812-1132); made in house; host or cells: insect cells
T2 sequence (O60674 812-1132): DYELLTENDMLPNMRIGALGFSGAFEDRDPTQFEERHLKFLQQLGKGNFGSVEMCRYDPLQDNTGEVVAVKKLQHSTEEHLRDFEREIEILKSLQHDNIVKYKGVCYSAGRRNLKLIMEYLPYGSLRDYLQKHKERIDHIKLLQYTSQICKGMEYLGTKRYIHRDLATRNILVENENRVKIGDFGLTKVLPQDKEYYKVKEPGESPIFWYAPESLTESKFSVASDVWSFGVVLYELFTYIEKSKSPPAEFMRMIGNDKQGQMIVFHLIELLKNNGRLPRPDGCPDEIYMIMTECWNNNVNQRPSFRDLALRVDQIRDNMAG
Procedure, shortened: as §1

Ki [1] [nM] | Ki [2] [nM] | Structure (SMILES)
0.63 | 0.52 | CN(C)CCN1CCC(n2nnc(Cn3cc(NC(=O)c4cnn5cccnc45)c(-c4cc(OC(F)F)ccc4OC(F)F)n3)n2)CC1 [Example 61, N-[3-[2,5-bis(difluoromethoxy)phenyl]-1-[[2-[1-[2-(dimethylamino)ethyl]-4-piperidyl]tetrazol-5-yl]methyl]pyrazol-4-yl]pyrazolo[1,5-a]pyrimidine-3-carboxamide]
0.64 | 0.54 | CN(C)[C@H]1C[C@H](N2CC(n3nnc(Cn4cc(NC(=O)c5cnn6cccnc56)c(-c5cc(OC(F)F)ccc5OC(F)F)n4)n3)C2)C1 [Example 70, N-[3-[2,5-bis(difluoromethoxy)phenyl]-1-[[2-[1-[3-(dimethylamino)cyclobutyl]azetidin-3-yl]tetrazol-5-yl]methyl]pyrazol-4-yl]pyrazolo[1,5-a]pyrimidine-3-carboxamide]
0.44 | 0.41 | CN1CC(N2CC(n3nnc(Cn4cc(NC(=O)c5cnn6cccnc56)c(-c5cc(OC(F)F)ccc5OC(F)F)n4)n3)C2)C1 [Example 78, N-[3-[2,5-bis(difluoromethoxy)phenyl]-1-[[2-[1-(1-methylazetidin-3-yl)azetidin-3-yl]tetrazol-5-yl]methyl]pyrazol-4-yl]pyrazolo[1,5-a]pyrimidine-3-carboxamide; formic acid]
